≈ marks a conversion by molar mass, not a printed value.
Key:
[1] = test system: nontyphoidal Salmonella; experiment: Agar dilution, isolates from chickens 1998–2004; format: cell-based, Salmonella spp.; details: Salmonella, read-out: MIC 50/90
[2] = test system: Acinetobacter; experiment: Disk diffusion; format: cell-based; details: 37 isolates selected as resistant to beta-lactams
[3] = test system: F. necrophorum; experiment: E-test, 13 clinical isolates; format: cell-based, Fusobacterium necrophorum
[4] = test system: E. coli; experiment: E-test susceptibility; format: cell-based, Escherichia coli
[5] = test system: Escherichia coli (ECO); experiment: Broth microdilution; format: cell-based; details: 2001
[6] = test system: M. morganii; experiment: Italian survey of severe infections 2003, MIC; format: cell-based, Morganella morganii
[7] = test system: H. influenzae; format: cell-based, Haemophilus influenzae
[8] = test system: K. pneumoniae; experiment: E-test susceptibility; format: cell-based, Klebsiella pneumoniae
[9] = test system: S. pneumoniae; format: cell-based, Streptococcus pneumoniae
[10] = test system: Shigella spp.; experiment: Disk diffusion, stool isolates Tehran; format: cell-based; details: 96 isolates
[11] = test system: Pseudomonas spp.; experiment: MIC; format: cell-based
[12] = test system: S. pneumoniae; experiment: MIC of invasive strains, Saint George Hospital 2001–2004; format: cell-based, Streptococcus pneumoniae
[13] = test system: P. stuartii; experiment: Italian survey of severe infections 2003, MIC; format: cell-based, Providencia stuartii
[14] = test system: S. marcescens; experiment: Italian survey of severe infections 2003, MIC; format: cell-based, Serratia marcescens
[15] = test system: Haemophilus influenzae (HI); experiment: MIC; format: cell-based; details: 7489 isolates
[16] = test system: S. pneumoniae; experiment: PROTEKT Italy, NCCLS microdilution; format: cell-based, Streptococcus pneumoniae
[17] = test system: Moraxella catarrhalis (MC); experiment: MIC; format: cell-based; details: 2497 isolates
[18] = test system: Streptococcus pneumoniae (SPN); experiment: MIC; format: cell-based; details: 8378 isolates
[19] = test system: S. pyogenes; experiment: PROTEKT Italy, NCCLS microdilution; format: cell-based, Streptococcus pyogenes; details: year 1: 2002
[20] = test system: Streptococcus pyogenes (SPY); experiment: MIC; format: cell-based; details: 2522 isolates
[21] = test system: viridans group streptococci (VGS); experiment: MIC; format: cell-based
[22] = test system: S. pneumoniae; experiment: Broth microdilution; format: cell-based, Streptococcus pneumoniae
[23] = test system: beta-haemolytic streptococcal isolates; experiment: Disk diffusion; format: cell-based, beta-haemolytic streptococci; details: 228 isolates
[24] = test system: H.influenzae; experiment: Broth microdilution; format: cell-based, Haemophilus influenzae; details: Haemophilus influenzae
[25] = test system: Moraxella spp.; experiment: Disk diffusion; format: cell-based; details: 35 isolates
[26] = test system: Other non-fermenting bacteria; experiment: Sensitivity of CAP pathogens with/without antibiotic pretreatment; format: cell-based
[27] = test system: E. coli; experiment: as above; format: cell-based, Escherichia coli
[28] = test system: Staph. coaq (−); experiment: as above; format: cell-based, coagulase-negative Staphylococcus
[29] = test system: Kl. pneumoniae; experiment: as above; format: cell-based, Klebsiella pneumoniae
[30] = test system: PRSP; experiment: Broth microdilution; format: cell-based, Streptococcus pneumoniae
[31] = test system: S. aureus; experiment: Sensitivity of CAP pathogens with/without antibiotic pretreatment; format: cell-based, Staphylococcus aureus
[32] = test system: S. pneumoniae (SPN); experiment: SENTRY Brazil, NCCLS broth microdilution; format: cell-based, Streptococcus pneumoniae
[33] = test system: Streptococcus pneumoniae; experiment: BSAC agar dilution, lower respiratory isolates UK and Ireland; format: cell-based
[34] = test system: S. pyogenes; experiment: Broth microdilution; format: cell-based, Streptococcus pyogenes; details: 212 isolates
[35] = test system: ERSP; experiment: Broth microdilution; format: cell-based, Streptococcus pneumoniae
[36] = test system: biofilms of S. aureus (SA204 and SA195) and S. epidermidis (ATCC35983 and ATCC35984); experiment: Antibiotic lock, in vitro biofilm on polyurethane film, viable counts; format: cell-based, Staphylococcus species; details: any of the time intervals examined
[37] = test system: Enterococcus sp; experiment: Sensitivity of CAP pathogens with/without antibiotic pretreatment; format: cell-based
[38] = test system: S. -pneumoniae; experiment: as above; format: cell-based, Streptococcus pneumoniae
[39] = test system: S. pyogenes; experiment: as above; format: cell-based, Streptococcus pyogenes; details: Abs. 4
[40] = test system: pathogens in community acquired pneumonia of different severity; experiment: Sensitivity of CAP pathogens by Fine severity group; format: cell-based
[41] = test system: P. aeruginosa; experiment: Sensitivity of CAP pathogens with/without antibiotic pretreatment; format: cell-based, Pseudomonas aeruginosa; details: Abs. 3
[42] = test system: H. influenzae; experiment: Disk diffusion; format: cell-based, Haemophilus influenzae; details: 237 isolates
[43] = test system: S. pneumoniae (Sp); experiment: Broth microdilution, point prevalence study Spain; format: cell-based, Streptococcus pneumoniae; details: 360 isolates, February 2004; penicillin I+R
[44] = test system: C. difficile; experiment: E-test, isolates from a department of surgery; format: cell-based, Clostridium difficile; details: Clostridioides difficile, read-out: MIC of high level resistant strains
[45] = test system: ‘wild type’ Staphylococcus epidermidis skin isolates; experiment: NCCLS disk diffusion; format: cell-based; details: 52 isolates
[46] = test system: H. influenzae; experiment: Sensitivity of CAP pathogens with/without antibiotic pretreatment; format: cell-based, Haemophilus influenzae
[47] = test system: H. influenzae; experiment: Disk diffusion, sputum isolates Athens 2001–2004; format: cell-based, Haemophilus influenzae
[48] = test system: Total pathogens in community acquired pneumonia; experiment: Sensitivity of CAP pathogens with/without antibiotic pretreatment; format: cell-based
[49] = test system: Other Haemophilus sp.; experiment: as above; format: cell-based
[50] = test system: Other Enterobacteriacae; experiment: as above; format: cell-based, Enterobacteriaceae
[51] = NCCLS breakpoints (Amox/Clav 2/1 mcg/mL)

CO/N=C(\C(=O)N[C@@H]1C(=O)N2C(C(=O)O)=C(COC(C)=O)CS[C@H]12)c1csc(N)n1 [cefotaxime]
MIC50 [1]: 0.12 to 0.25 µg/mL (≈ 0.263 to 0.549 µM)
resistant isolates [2]: 75.7%
MIC range [3]: 0.016 to 256 µg/mL
MIC50 ([3]; Fusobacterium necrophorum): 0.016 µg/mL (≈ 0.0351 µM)
MIC90 ([3]; Fusobacterium necrophorum): 0.064 µg/mL (≈ 0.141 µM)
Susceptible isolates ([4]; ICU, SRGA breakpoints, tigecycline tentative S ≤2 μg/ml): 98%
Susceptible isolates ([4]; non ICU): 99%
susceptible ([5]; NAL-resistant isolates): 89.9%
susceptible ([5]; NAL-susceptible isolates): 99.2%
resistance [6]: 14,3%
resistant [7]: 0%
Susceptible isolates ([8]; ICU): 98%
Susceptible isolates ([8]; non ICU): 100%
resistant [9]: 0%
sensitive [10]: 100%
resistant strains [11]: 90%
% S [12]: 95.2%
%R [12]: 4.8%
resistance [13]: 84.5%
resistance [14]: 13.2%

CC[C@H]1OC(=O)[C@H](C)C(=O)[C@H](C)[C@@H](O[C@@H]2O[C@H](C)C[C@H](N(C)C)[C@H]2O)[C@](C)(OC)C[C@@H](C)C(=O)[C@H](C)[C@H]2N(CCCCn3cnc(-c4cccnc4)c3)C(=O)O[C@]12C [telithromycin]
MIC90 [15]: 4 ig/ml
susceptible ([16]; year 1: 2002): 99.7%
susceptible ([16]; year 2: 2003): 99.1%
MIC90 [17]: 0.12 ig/ml
MIC90 [18]: 0.008 ig/ml
Susceptibility [19]: 92.7%
MIC90 [20]: 0.008 ig/ml
MIC50 [21]: 0.007 µg/mL (≈ 0.00862 µM)
MIC90 [21]: 2 µg/mL (≈ 2.46 µM)

CC[C@H]1OC(=O)[C@H](C)[C@@H](O[C@H]2C[C@@](C)(OC)[C@@H](O)[C@H](C)O2)[C@H](C)[C@@H](O[C@@H]2O[C@H](C)C[C@H](N(C)C)[C@H]2O)[C@](C)(O)C[C@@H](C)C(=O)[C@H](C)[C@@H](O)[C@]1(C)O [erythromycin]
%Sus [22, 51]: 71.2%
MIC90 ([22]; Streptococcus pneumoniae): > 32 µg/mL
Susceptible isolates [23]: 98%
MIC90 [24]: 8 µg/mL (≈ 10.9 µM)
Susceptible isolates [25]: 100%
% of sensitive strains ([26]; after pretreatment, Abs. 0): 0.0%
% of sensitive strains ([26]; without pretreatment, Abs. 1): 0.0%
% of sensitive strains ([27]; after pretreatment, Abs. 1): 0.0%
% of sensitive strains ([27]; without pretreatment, Abs. 5): 0.0%
% of sensitive strains ([28]; after pretreatment, Abs. 2): 50.0%
% of sensitive strains ([28]; without pretreatment, Abs. 4): 75.0%
% of sensitive strains ([29]; after pretreatment, Abs. 5): 0.0%
% of sensitive strains ([29]; without pretreatment, Abs. 4): 0.0%
%Sus [30, 51]: 21.5%
MIC90 ([30]; Streptococcus pneumoniae, PRSP): > 32 µg/mL
% of sensitive strains ([31]; after pretreatment, Abs. 4): 75.0%
% of sensitive strains ([31]; without pretreatment, Abs. 11): 45.5%
% S [32]; 1998: 85%
% S [32]; 1999: 88%
% S [32]; 2000: 91%
% S [32]; 2001: 90%
% S [32]; 2002: 94%
% S [32]; 2003: 91%
resistance (PEN-NS >0.06, TET-R >1, ERY-R >0.5, CIP-R >2 mg/L) ([33]; Ireland 1999–2000, N 66): 27.3%
resistance (same cut-offs) ([33]; Ireland 2000–2001, N 59): 23.7%
resistance (same cut-offs) ([33]; Ireland 2001–2002, N 68): 25.0%
resistance (same cut-offs) ([33]; Ireland 2002–2003, N 89): 12.4%
resistance (same cut-offs) ([33]; Ireland 2003–2004, N 76): 9.2%
resistance (same cut-offs) ([33]; UK 1999–2000, N 595): 11.8%
resistance (same cut-offs) ([33]; UK 2000–2001, N 608): 10.0%
resistance (same cut-offs) ([33]; UK 2001–2002, N 631): 10.8%
resistance (same cut-offs) ([33]; UK 2002–2003, N 683): 9.7%
resistance (same cut-offs) ([33]; UK 2003–2004, N 709): 10.6%
nonsusceptible [34]: 10.8%
%Sus [35, 51]: 0.0%
MIC90 ([35]; Streptococcus pneumoniae): > 32 µg/mL
significant biofilm killing [36]: not achieved
% of sensitive strains ([37]; after pretreatment, Abs. 0): 0.0%
% of sensitive strains ([37]; without pretreatment, Abs. 1): 0.0%
% of sensitive strains ([38]; after antibiotic pretreatment, Abs. 3): 100.0%
% of sensitive strains ([38]; without antibiotic pretreatment, Abs. 13): 100.0%
% of sensitive strains ([39]; after pretreatment): 100.0%
% of sensitive strains ([39]; without pretreatment): 100.0%
sensitivity, total strains ([40]; higher severity group (Fine scores >70)): 26,3%
sensitivity, total strains ([40]; lower severity group (Fine scores <70)): 17.6%
% S [12]: 82%
%R [12]: 18%
% of sensitive strains ([41]; after pretreatment): 0.0%
% of sensitive strains ([41]; without pretreatment): 0.0%
Susceptible isolates [42]: 94%
resistance [43]: 36%
MIC [44]: > 256 µg/mL
% resistant [45]: 46.2%
% of sensitive strains ([46]; after pretreatment, Abs. 10): 0.0%
% of sensitive strains ([46]; without pretreatment, Abs. 26): 0.0%
resistance rate ([47]; 2001–2002): 49.5%
resistance rate ([47]; 2003–2004): 58.0%
MIC50 [21]: 0.12 µg/mL (≈ 0.164 µM)
MIC90 [21]: 256 µg/mL (≈ 349 µM)
% of sensitive strains ([48]; after pretreatment, Abs. 48): 22.9%
% of sensitive strains ([48]; without pretreatment, Abs. 95): 26.3%
% of sensitive strains ([49]; after pretreatment, Abs. 11): 0.0%
% of sensitive strains ([49]; without pretreatment, Abs. 21): 00%
% of sensitive strains ([50]; after pretreatment, Abs. 5): 0.0%
% of sensitive strains ([50]; without pretreatment, Abs. 2): 0.0%

— PMC7129073 (Clinical Microbiology and Infection, 2015)
